# According to the kinase profiling compilation of Christmann-Franck et al. (2016):
# Columns and labels:
# Details in all cases: compound 10.0 µM
# WEE2 (human) = WEE2 (human) (UniProt P0C1S8)
# PIK3C2G (human) = PIK3C2G (human) (UniProt O75747)
# PIP5K1C (human) = PIP5K1C (human) (UniProt O60331)
# MAPK1 (human) = MAPK1 (human) (UniProt P28482)
# MAST1 (human) = MAST1 (human) (UniProt Q9Y2H9)
# STK17A (human) = STK17A (human) (UniProt Q9UEE5)
# CAMKK1 (human) = CAMKK1 (human) (UniProt Q8N5S9)
# CDK16 (human) = CDK16 (human) (UniProt Q00536)
# CDK15 (human) = CDK15 (human) (UniProt Q96Q40)
# ULK2 (human) = ULK2 (human) (UniProt Q8IYT8)
# [1] = test system: EIF2AK4 KD2 (human), Q9P2K8 [S808G]
# CLK1 (human) = CLK1 (human) (UniProt P49759)
# MAP3K10 (human) = MAP3K10 (human) (UniProt Q02779)
# AAK1 (human) = AAK1 (human) (UniProt Q2M2I8)
# MARK1 (human) = MARK1 (human) (UniProt Q9P0L2)
# BTK (human) = BTK (human) (UniProt Q06187)
# [2] = test system: RET (human), P07949 [M918T]
# GSK3B (human) = GSK3B (human) (UniProt P49841)
# PKN1 (human) = PKN1 (human) (UniProt Q16512)
# [3] = test system: MET (human), P08581 [M1250T]
# TEC (human) = TEC (human) (UniProt P42680)
# MST1R (human) = MST1R (human) (UniProt Q04912)
# DCLK3 (human) = DCLK3 (human) (UniProt Q9C098)
# PKN3 (M.tuberculosis) = PKN3 (M.tuberculosis) (UniProt Q6P5Z2)
# NEK9 (human) = NEK9 (human) (UniProt Q8TD19)
# GSK3A (human) = GSK3A (human) (UniProt P49840)
# EPHA4 (human) = EPHA4 (human) (UniProt P54764)
# MST4 (human) = MST4 (human) (UniProt Q9P289)
# STK35 (human) = STK35 (human) (UniProt Q8TDR2)
# FER (human) = FER (human) (UniProt P16591)
# PIP5K1A (human) = PIP5K1A (human) (UniProt Q99755)
# MYO3B (human) = MYO3B (human) (UniProt Q8WXR4)
# ERN1 (human) = ERN1 (human) (UniProt O75460)
# CSNK2A2 (human) = CSNK2A2 (human) (UniProt P19784)
# ALK (human) = ALK (human) (UniProt Q9UM73)
# ERBB4 (human) = ERBB4 (human) (UniProt Q15303)
# MAP3K11 (human) = MAP3K11 (human) (UniProt Q16584)
# ICK (human) = ICK (human) (UniProt Q9UPZ9)
# MARK2 (human) = MARK2 (human) (UniProt Q7KZI7)
# AURKC (human) = AURKC (human) (UniProt Q9UQB9)
# STK17B (human) = STK17B (human) (UniProt O94768)
# RAF1 (human) = RAF1 (human) (UniProt P04049)
# Sequence of MARK2 (human) (Q7KZI7 whole entry, looked up): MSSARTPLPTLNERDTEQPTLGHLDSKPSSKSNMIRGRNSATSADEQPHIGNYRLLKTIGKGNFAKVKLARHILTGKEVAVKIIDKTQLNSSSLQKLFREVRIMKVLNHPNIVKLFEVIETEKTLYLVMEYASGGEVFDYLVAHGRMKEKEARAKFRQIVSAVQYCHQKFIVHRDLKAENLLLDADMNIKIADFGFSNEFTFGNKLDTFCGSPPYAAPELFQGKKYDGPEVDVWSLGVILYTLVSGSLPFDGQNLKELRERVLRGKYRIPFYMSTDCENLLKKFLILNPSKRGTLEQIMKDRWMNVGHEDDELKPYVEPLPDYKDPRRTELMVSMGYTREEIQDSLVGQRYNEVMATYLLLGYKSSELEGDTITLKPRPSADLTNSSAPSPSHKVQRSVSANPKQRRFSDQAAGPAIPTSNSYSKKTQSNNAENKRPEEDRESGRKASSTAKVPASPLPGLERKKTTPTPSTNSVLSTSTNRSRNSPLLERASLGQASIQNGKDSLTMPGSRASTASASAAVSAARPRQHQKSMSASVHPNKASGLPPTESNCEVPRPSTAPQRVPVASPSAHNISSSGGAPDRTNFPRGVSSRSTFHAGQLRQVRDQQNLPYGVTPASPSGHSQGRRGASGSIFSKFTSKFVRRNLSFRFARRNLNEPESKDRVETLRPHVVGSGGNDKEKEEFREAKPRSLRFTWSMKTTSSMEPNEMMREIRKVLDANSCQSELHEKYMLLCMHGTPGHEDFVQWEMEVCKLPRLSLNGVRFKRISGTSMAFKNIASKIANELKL
# Sequence of STK17B (human) (O94768 whole entry, looked up): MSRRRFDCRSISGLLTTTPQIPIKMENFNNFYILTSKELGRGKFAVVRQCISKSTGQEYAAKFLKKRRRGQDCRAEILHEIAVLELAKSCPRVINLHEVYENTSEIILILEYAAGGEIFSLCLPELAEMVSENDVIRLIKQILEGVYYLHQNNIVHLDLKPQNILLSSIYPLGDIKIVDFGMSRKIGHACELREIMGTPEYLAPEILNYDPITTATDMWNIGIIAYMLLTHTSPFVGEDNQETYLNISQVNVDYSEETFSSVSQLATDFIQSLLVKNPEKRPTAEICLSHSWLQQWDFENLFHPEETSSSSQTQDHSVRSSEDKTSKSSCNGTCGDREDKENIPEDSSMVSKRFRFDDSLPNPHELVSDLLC
# Sequence of STK17A (human) (Q9UEE5 whole entry, looked up): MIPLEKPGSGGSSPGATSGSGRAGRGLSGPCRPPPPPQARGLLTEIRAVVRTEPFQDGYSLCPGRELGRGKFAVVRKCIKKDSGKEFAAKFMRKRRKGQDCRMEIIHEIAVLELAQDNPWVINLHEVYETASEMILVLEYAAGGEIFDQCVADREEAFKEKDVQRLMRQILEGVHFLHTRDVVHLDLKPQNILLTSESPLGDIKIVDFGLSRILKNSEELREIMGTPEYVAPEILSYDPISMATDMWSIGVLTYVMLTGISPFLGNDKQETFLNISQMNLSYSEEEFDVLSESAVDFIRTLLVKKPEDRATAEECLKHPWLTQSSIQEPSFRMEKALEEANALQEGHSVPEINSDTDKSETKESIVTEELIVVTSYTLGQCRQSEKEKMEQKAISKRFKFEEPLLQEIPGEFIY
# Sequence of AURKC (human) (Q9UQB9 whole entry, looked up): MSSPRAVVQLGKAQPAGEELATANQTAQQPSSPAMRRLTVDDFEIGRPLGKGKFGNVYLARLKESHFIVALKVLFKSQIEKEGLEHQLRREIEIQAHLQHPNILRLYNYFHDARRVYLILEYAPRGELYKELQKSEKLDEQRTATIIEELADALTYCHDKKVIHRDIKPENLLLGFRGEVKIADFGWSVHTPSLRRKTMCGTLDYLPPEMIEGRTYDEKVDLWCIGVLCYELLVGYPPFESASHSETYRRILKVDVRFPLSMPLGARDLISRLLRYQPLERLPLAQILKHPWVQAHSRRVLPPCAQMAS
# Sequence of FER (human) (P16591 whole entry, looked up): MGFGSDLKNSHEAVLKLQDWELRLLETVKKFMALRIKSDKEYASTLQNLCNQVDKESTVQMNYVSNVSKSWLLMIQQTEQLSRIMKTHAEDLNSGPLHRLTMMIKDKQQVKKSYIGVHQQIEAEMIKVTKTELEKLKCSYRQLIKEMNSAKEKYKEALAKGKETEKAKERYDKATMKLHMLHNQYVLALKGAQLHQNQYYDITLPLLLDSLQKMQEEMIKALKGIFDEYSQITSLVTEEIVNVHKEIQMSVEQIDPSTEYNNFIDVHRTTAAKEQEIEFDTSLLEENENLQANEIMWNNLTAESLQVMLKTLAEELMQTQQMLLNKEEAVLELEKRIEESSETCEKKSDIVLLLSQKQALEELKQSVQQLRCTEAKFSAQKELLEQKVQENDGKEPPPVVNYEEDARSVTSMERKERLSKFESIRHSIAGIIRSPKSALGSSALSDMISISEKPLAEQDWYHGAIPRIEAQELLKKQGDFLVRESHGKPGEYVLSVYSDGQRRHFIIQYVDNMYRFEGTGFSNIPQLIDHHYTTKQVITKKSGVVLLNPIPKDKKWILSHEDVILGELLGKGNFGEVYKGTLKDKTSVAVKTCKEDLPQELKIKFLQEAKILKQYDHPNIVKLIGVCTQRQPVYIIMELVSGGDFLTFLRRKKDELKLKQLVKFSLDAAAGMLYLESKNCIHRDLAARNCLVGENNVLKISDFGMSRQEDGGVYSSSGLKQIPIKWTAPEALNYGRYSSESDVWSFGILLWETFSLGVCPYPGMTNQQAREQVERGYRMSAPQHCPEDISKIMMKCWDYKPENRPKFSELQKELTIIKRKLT
# Sequence of TEC (human) (P42680 whole entry, looked up): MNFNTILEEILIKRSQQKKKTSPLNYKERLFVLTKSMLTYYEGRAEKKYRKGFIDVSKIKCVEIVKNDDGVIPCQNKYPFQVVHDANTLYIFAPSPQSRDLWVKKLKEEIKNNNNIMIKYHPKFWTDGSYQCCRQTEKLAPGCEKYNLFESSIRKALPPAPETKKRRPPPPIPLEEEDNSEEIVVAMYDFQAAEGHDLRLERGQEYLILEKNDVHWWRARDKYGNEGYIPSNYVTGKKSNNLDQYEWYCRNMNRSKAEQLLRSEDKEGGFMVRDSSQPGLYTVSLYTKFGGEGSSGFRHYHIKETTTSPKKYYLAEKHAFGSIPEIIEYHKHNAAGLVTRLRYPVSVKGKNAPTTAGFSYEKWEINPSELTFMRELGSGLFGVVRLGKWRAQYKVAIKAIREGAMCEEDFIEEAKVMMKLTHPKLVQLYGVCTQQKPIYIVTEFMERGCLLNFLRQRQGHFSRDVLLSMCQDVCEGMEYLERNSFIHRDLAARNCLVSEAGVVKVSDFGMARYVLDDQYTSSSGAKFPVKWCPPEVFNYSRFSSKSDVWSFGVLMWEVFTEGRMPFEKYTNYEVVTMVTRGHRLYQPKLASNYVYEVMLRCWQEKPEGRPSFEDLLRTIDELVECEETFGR
# Sequence of DCLK3 (human) (Q9C098 whole entry, looked up): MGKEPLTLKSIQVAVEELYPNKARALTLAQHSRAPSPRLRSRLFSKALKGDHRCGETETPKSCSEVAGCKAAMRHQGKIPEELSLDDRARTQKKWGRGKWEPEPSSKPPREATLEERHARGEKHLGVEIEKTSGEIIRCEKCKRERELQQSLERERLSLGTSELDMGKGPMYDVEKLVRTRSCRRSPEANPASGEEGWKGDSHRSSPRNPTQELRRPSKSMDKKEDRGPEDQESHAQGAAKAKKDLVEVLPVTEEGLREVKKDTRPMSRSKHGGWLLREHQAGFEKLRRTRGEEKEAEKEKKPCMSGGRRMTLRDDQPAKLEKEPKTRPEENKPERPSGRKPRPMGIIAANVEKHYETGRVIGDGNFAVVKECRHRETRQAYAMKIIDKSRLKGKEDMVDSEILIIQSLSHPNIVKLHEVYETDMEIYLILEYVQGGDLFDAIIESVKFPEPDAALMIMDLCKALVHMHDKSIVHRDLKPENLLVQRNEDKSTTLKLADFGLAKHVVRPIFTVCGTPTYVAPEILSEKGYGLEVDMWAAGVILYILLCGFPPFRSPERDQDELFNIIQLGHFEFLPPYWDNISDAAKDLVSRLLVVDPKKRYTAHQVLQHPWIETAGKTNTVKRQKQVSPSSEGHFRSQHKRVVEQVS
# Sequence of CLK1 (human) (P49759 whole entry, looked up): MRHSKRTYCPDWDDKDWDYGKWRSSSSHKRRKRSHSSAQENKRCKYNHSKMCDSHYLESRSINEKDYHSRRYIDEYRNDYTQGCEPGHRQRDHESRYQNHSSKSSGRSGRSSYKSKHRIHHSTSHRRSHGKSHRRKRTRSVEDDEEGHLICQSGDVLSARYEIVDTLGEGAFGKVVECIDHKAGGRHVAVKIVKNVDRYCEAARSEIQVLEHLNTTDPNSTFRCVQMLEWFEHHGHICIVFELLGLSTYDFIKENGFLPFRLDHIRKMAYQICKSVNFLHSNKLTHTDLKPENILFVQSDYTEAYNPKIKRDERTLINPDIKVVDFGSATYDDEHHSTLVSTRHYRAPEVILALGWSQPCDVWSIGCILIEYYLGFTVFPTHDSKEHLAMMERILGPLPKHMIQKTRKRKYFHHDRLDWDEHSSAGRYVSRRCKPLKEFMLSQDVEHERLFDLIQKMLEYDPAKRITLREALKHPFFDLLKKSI
# Sequence of STK35 (human) (Q8TDR2 whole entry, looked up): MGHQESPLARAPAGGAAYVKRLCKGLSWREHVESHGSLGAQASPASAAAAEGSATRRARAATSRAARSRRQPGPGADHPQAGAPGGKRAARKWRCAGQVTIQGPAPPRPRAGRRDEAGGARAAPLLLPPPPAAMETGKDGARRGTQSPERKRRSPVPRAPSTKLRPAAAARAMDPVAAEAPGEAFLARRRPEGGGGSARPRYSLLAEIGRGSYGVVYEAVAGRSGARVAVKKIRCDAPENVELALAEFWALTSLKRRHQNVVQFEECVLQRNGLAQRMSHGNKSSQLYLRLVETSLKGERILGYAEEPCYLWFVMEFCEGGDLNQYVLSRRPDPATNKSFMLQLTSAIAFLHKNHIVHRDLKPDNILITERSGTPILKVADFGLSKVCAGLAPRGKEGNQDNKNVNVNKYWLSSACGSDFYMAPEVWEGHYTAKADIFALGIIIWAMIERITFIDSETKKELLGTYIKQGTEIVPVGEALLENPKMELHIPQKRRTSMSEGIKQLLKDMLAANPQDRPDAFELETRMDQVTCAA
smiles,measurement,setting,value
CNC(=O)c1cc(Oc2ccc(NC(=O)Nc3ccc(Cl)c(C(F)(F)F)c3)cc2)cc[n+]1[O-],per cent of control,WEE2 (human),94%
same,per cent of control,PIK3C2G (human),100%
same,per cent of control,PIP5K1C (human),66%
same,per cent of control,MAPK1 (human),100%
same,per cent of control,MAST1 (human),100%
same,per cent of control,STK17A (human),66%
same,per cent of control,CAMKK1 (human),79%
same,per cent of control,CDK16 (human),19%
same,per cent of control,CDK15 (human),9.6%
same,per cent of control,ULK2 (human),75%
same,per cent of control,[1],70%
same,per cent of control,CLK1 (human),46%
same,per cent of control,MAP3K10 (human),88%
same,per cent of control,AAK1 (human),100%
same,per cent of control,MARK1 (human),100%
same,per cent of control,BTK (human),30%
same,per cent of control,[2],0%
same,per cent of control,GSK3B (human),79%
same,per cent of control,PKN1 (human),97%
same,per cent of control,[3],16%
same,per cent of control,TEC (human),68%
same,per cent of control,MST1R (human),30%
same,per cent of control,DCLK3 (human),100%
same,residual activity,PKN3 (M.tuberculosis),100%
same,per cent of control,NEK9 (human),35%
same,per cent of control,GSK3A (human),100%
same,per cent of control,EPHA4 (human),13%
same,per cent of control,MST4 (human),49%
same,per cent of control,STK35 (human),40%
same,per cent of control,FER (human),64%
same,per cent of control,PIP5K1A (human),100%
same,per cent of control,MYO3B (human),17%
same,per cent of control,ERN1 (human),66%
same,per cent of control,CSNK2A2 (human),70%
same,per cent of control,ALK (human),94%
same,per cent of control,ERBB4 (human),100%
same,per cent of control,MAP3K11 (human),89%
same,per cent of control,ICK (human),100%
same,per cent of control,MARK2 (human),87%
same,per cent of control,AURKC (human),15%
same,per cent of control,STK17B (human),62%
same,per cent of control,RAF1 (human),0.45%
CNC(=O)c1cc(Oc2ccc(NC(=O)Nc3ccc(Cl)c(C(F)(F)F)c3)cc2)ccn1,per cent of control,WEE2 (human),100%
same,per cent of control,PIK3C2G (human),100%
same,per cent of control,PIP5K1C (human),79%
same,per cent of control,MAPK1 (human),100%
same,per cent of control,MAST1 (human),100%
same,per cent of control,STK17A (human),58%
same,per cent of control,CAMKK1 (human),100%
same,per cent of control,CDK16 (human),68%
same,per cent of control,CDK15 (human),7.4%
same,per cent of control,ULK2 (human),94%
same,per cent of control,[1],60%
same,per cent of control,CLK1 (human),29%
same,per cent of control,MAP3K10 (human),85%
same,per cent of control,AAK1 (human),100%
same,per cent of control,MARK1 (human),90%
same,per cent of control,BTK (human),62%
same,per cent of control,[2],0%
same,per cent of control,GSK3B (human),92%
same,per cent of control,PKN1 (human),100%
same,per cent of control,[3],86%
same,per cent of control,TEC (human),100%
same,per cent of control,MST1R (human),76%
same,per cent of control,DCLK3 (human),100%
same,residual activity,PKN3 (M.tuberculosis),100%
same,per cent of control,NEK9 (human),48%
same,per cent of control,GSK3A (human),100%
same,per cent of control,EPHA4 (human),15%
same,per cent of control,MST4 (human),99%
same,per cent of control,STK35 (human),7.8%
same,per cent of control,FER (human),77%
same,per cent of control,PIP5K1A (human),100%
same,per cent of control,MYO3B (human),38%
same,per cent of control,ERN1 (human),92%
same,per cent of control,CSNK2A2 (human),82%
same,per cent of control,ALK (human),100%
same,per cent of control,ERBB4 (human),92%
same,per cent of control,MAP3K11 (human),74%
same,per cent of control,ICK (human),100%
same,per cent of control,MARK2 (human),67%
same,per cent of control,AURKC (human),12%
same,per cent of control,STK17B (human),66%
same,per cent of control,RAF1 (human),0.7%
